Measurements from the CheMixHub viscosity set.

Experiment: xn = mol fraction of the nth substance listed

C1CCCCC1 + CCCCCCCCCC
Conditions | viscosity [mPa·s]
298.15 K, 101 kPa, x2 = 0.1357 | 0.8838
298.15 K, 101 kPa, x2 = 0.1638 | 0.8739
298.15 K, 101 kPa, x2 = 0.1909 | 0.8684
298.15 K, 101 kPa, x2 = 0.2292 | 0.8595
298.15 K, 101 kPa, x2 = 0.2677 | 0.8527
298.15 K, 101 kPa, x2 = 0.2769 | 0.8484
298.15 K, 101 kPa, x2 = 0.316 | 0.8438
298.15 K, 101 kPa, x2 = 0.3563 | 0.8348
298.15 K, 101.33 kPa, x1 = 0.1037 | 0.836
298.15 K, 101.33 kPa, x1 = 0.1316 | 0.8418
298.15 K, 101.33 kPa, x1 = 0.2065 | 0.824
298.15 K, 101.33 kPa, x1 = 0.254 | 0.8386
298.15 K, 101.33 kPa, x1 = 0.3077 | 0.818
298.15 K, 101.33 kPa, x1 = 0.3302 | 0.8292
298.15 K, 101.33 kPa, x1 = 0.4003 | 0.818
298.15 K, 101.33 kPa, x1 = 0.467 | 0.8331
298.15 K, 101.33 kPa, x1 = 0.5005 | 0.818
298.15 K, 101.33 kPa, x1 = 0.5494 | 0.8222
298.15 K, 101.33 kPa, x1 = 0.6 | 0.814
298.15 K, 101.33 kPa, x1 = 0.6289 | 0.8303
298.15 K, 101.33 kPa, x1 = 0.7015 | 0.8247
298.15 K, 101.33 kPa, x1 = 0.7045 | 0.812
298.15 K, 101.33 kPa, x1 = 0.7719 | 0.8409
298.15 K, 101.33 kPa, x1 = 0.802 | 0.819
298.15 K, 101.33 kPa, x1 = 0.8324 | 0.8412
298.15 K, 101.33 kPa, x1 = 0.8857 | 0.8612
298.15 K, 101.33 kPa, x1 = 0.9001 | 0.845
298.15 K, 101.33 kPa, x1 = 0.9309 | 0.8746
298.15 K, 101.33 kPa, x2 = 0.0178 | 0.8968
303.15 K, 101.33 kPa, x1 = 0.1037 | 0.78
303.15 K, 101.33 kPa, x1 = 0.2065 | 0.766
303.15 K, 101.33 kPa, x1 = 0.3077 | 0.761
303.15 K, 101.33 kPa, x1 = 0.4003 | 0.761
303.15 K, 101.33 kPa, x1 = 0.5005 | 0.76
303.15 K, 101.33 kPa, x1 = 0.6 | 0.756
303.15 K, 101.33 kPa, x1 = 0.7045 | 0.754
303.15 K, 101.33 kPa, x1 = 0.802 | 0.759
303.15 K, 101.33 kPa, x1 = 0.9001 | 0.78
308.15 K, 101 kPa, x1 = 0.0439 | 0.7345
308.15 K, 101 kPa, x1 = 0.175 | 0.7272
308.15 K, 101 kPa, x1 = 0.2106 | 0.7254
308.15 K, 101 kPa, x1 = 0.3096 | 0.7164
308.15 K, 101 kPa, x1 = 0.3863 | 0.7147
308.15 K, 101 kPa, x1 = 0.4943 | 0.7122
308.15 K, 101 kPa, x1 = 0.5864 | 0.7133
308.15 K, 101 kPa, x1 = 0.7303 | 0.7189
308.15 K, 101 kPa, x1 = 0.8805 | 0.7325
308.15 K, 101 kPa, x1 = 0.9385 | 0.7399
308.15 K, 101.33 kPa, x1 = 0.1037 | 0.728
308.15 K, 101.33 kPa, x1 = 0.2065 | 0.713
308.15 K, 101.33 kPa, x1 = 0.3077 | 0.708
308.15 K, 101.33 kPa, x1 = 0.4003 | 0.71
308.15 K, 101.33 kPa, x1 = 0.5005 | 0.71
308.15 K, 101.33 kPa, x1 = 0.6 | 0.702
308.15 K, 101.33 kPa, x1 = 0.7045 | 0.699
308.15 K, 101.33 kPa, x1 = 0.802 | 0.703
308.15 K, 101.33 kPa, x1 = 0.9001 | 0.716
313.15 K, 101 kPa, x1 = 0.0439 | 0.6849
313.15 K, 101 kPa, x1 = 0.175 | 0.6717
313.15 K, 101 kPa, x1 = 0.2106 | 0.6706
313.15 K, 101 kPa, x1 = 0.3096 | 0.666
313.15 K, 101 kPa, x1 = 0.3863 | 0.6618
313.15 K, 101 kPa, x1 = 0.4943 | 0.6596
313.15 K, 101 kPa, x1 = 0.5864 | 0.6577
313.15 K, 101 kPa, x1 = 0.7303 | 0.6684
313.15 K, 101 kPa, x1 = 0.8805 | 0.6936
313.15 K, 101 kPa, x1 = 0.9385 | 0.7077

COC(C)=O + CCCCCCCCCC
298.15 K, 101.3 kPa
Conditions | viscosity [mPa·s]
x1 = 0.0803 | 0.7987
x1 = 0.1876 | 0.7291
x1 = 0.3354 | 0.6485
x1 = 0.4452 | 0.5969
x1 = 0.476 | 0.5809
x1 = 0.5538 | 0.5456
x1 = 0.618 | 0.5186
x1 = 0.7363 | 0.4714
x1 = 0.8315 | 0.4356

CC(CC(C)(C)C)CP(=O)([O-])CC(C)CC(C)(C)C.CCCC[P+](C)(CCCC)CCCC (centres undefined) + CCCCCCCCCCCC
viscosity [mPa·s], 101 kPa
Conditions | 298.15 K | 303.15 K | 308.15 K | 313.15 K | 318.15 K | 323.15 K
x2 = 0.25 | 318 | 214 | 159 | 112 | 81.6 | 60.6
x2 = 0.43 | 88.6 | 67.8 | 53.6 | 41.9 | 34.4 | 27.1
x2 = 0.56 | 39.4 | 31 | 25.4 | 21.7 | 18.3 | 16.1
